According to PMC3292467, “Comparison between ^68Ga-bombesin (^68Ga-BZH3) and the cRGD tetramer ^68Ga-RGD4 studies in an experimental nude rat model with a neuroendocrine pancreatic tumor cell line” (EJNMMI Research, 2011):
Like-named read-outs stand apart in the source and are kept apart here. One block for each molecule: values may come before it. Square brackets hold non-standard residues; d marks the D form.

Key:
AR42J tumor [1] = conditions: AR42J tumor-bearing nude rats, n = 5 (BZH3), n = 4 (RGD4); for VB (vessel density, fractional blood volume): dynamic PET 60 min, i.v.
Protocol: The AR42J cell line, derived from a rat exocrine pancreas neuroendocrine tumor, was used. Cells were obtained from the European Collection of Cell Cultures and were grown in RPMI 1640 medium supplemented with 2 mmol/L glutamine and 10% fetal calf serum. Adherent cells were dislodged with trypsin/ethylenediaminetetraacetic acid (0.02%: 0.05%, w/v). For PET-studies, 5 × 10^6 cells in 200 μl RPMI without supplements were inoculated subcutaneously in the right hind leg of Wistar rats.
The study included nine AR 42 J tumor-bearing nude rats. We grouped all rats according to PET tracers (B, ^68Ga-BZH3 and R, ^68Ga-RGD4), used in dynamic PET scanning, as noted in Table 1. Dynamic PET studies were performed for 60 min after the intravenous application of 10 to 30 MBq ^68Ga-RGD4 or 20 to 40 MBq ^68Ga-BZH3, using a 28-frame protocol (ten frames of 30 s, five frames of 60 s, five frames of 120 s, and eight frames of 300 s). Two animals can be examined in parallel per scanning by a homemade injector (Figure 2). A dedicated PET-CT system (Biograph™ mCT, 128 S/X, Siemens Co, Erlangen, Germany) with an axial field of view of 21.6 cm with TrueV, operated in a three-dimensional mode, was used for all animal studies. The system provides the simultaneous acquisition of 369 transverse slices with a slice thickness of 0.6 mm. The animals were positioned in the axial plane of the system to maintain the best resolution in the center of the system. All PET images were attenuation-corrected and an image matrix of 400 × 400 pixels was used for iterative image reconstruction (voxel size 1.565 × 1.565 × 0.6 mm) based on the syngo MI PET/CT 2009C software version. After the end of the dynamic series an ultrahigh resolution CT with 85 mA, 80 kV and a pitch of 0.85 cm was performed for attenuation correction of the acquired dynamic emission data. The reconstructed images were converted to SUV images based on the formula [24]: SUV = Tissue concentration (becquerel per gram)/[injected dose ([…]))/body weight (gram)]. The SUV 55 to 60 min post-injection was used for the assessment of both tracers. The SUV images were used for all further quantitative evaluations.
Dynamic PET data were evaluated using the software package PMOD (provided courtesy of PMOD Technologies Ltd., Zuerich, Switzerland). Areas with enhanced tracer uptake on transaxial, coronal, and sagittal images were evaluated visually. A volume of interest consists of several regions of interest over the target area. Irregular regions of interest were drawn manually. A detailed quantitative evaluation of tracer kinetics requires the use of compartmental modeling. A two-tissue-compartment model was used to evaluate the dynamic studies.
In animals, a partial volume correction must be applied to the data due to the small size of the input and tumor volumes of interest (VOIs). Herein, the recovery coefficient was 0.85 for a diameter of 8 mm and 0.32 for a diameter of 3 mm based on phantom measurements as well as the recent parameter settings used with the reconstruction software. For the input function the mean values of the VOI data obtained from the heart were used. We used a preprocessing tool, which allowed a fit of the input curve by a sum of up to three decaying exponentials. The learning-machine two-tissue-compartment model was used for the fitting and provided five parameters: the transport parameters for tracer into and out of the cell, K1 and k2, the parameters for phosphorylation and dephosphorylation of intracellular tracer, k3 and k4, and the fractional blood volume, also called vessel density (VB), which reflects the amount of blood in the VOI. Following compartment analysis, we calculated the global influx of tracer from the compartment data using the formula: influx = (K1 × k3)/(k2 + k3). […] The model parameters were accepted when K1 - k4 was less than 1 and VB exceeded 0. The unit for the rate constants K1 to k4 was 1/min.

[2] = 3D fused PET-CT images; male rat
Protocol: The study included nine AR 42 J tumor-bearing nude rats. We grouped all rats according to PET tracers (B, ^68Ga-BZH3 and R, ^68Ga-RGD4), used in dynamic PET scanning, as noted in Table 1. Dynamic PET studies were performed for 60 min after the intravenous application of 10 to 30 MBq ^68Ga-RGD4 or 20 to 40 MBq ^68Ga-BZH3, using a 28-frame protocol (ten frames of 30 s, five frames of 60 s, five frames of 120 s, and eight frames of 300 s). Two animals can be examined in parallel per scanning by a homemade injector (Figure 2). A dedicated PET-CT system (Biograph™ mCT, 128 S/X, Siemens Co, Erlangen, Germany) with an axial field of view of 21.6 cm with TrueV, operated in a three-dimensional mode, was used for all animal studies. The system provides the simultaneous acquisition of 369 transverse slices with a slice thickness of 0.6 mm. The animals were positioned in the axial plane of the system to maintain the best resolution in the center of the system. […] The SUV images were used for all further quantitative evaluations.
Dynamic PET data were evaluated using the software package PMOD (provided courtesy of PMOD Technologies Ltd., Zuerich, Switzerland). Areas with enhanced tracer uptake on transaxial, coronal, and sagittal images were evaluated visually. […] A detailed quantitative evaluation of tracer kinetics requires the use of compartmental modeling. […]

ανβ3 = ανβ3 (Homo sapiens, UniProt P05106+P06756); experiment: biochemical
[3] = Dynamic PET, tumor uptake (SUV) in AR42J tumor-bearing nude rats; type: in vivo, rat; conditions: Wistar (nude), rat, tumor (AR42J), iv, i.v. 20 to 40 MBq (BZH3, n = 5), 10 to 30 MBq (RGD4, n = 4), nude rats, read-out: SUV (standardized uptake value) in tumor
Excerpt: (§1) Irregular regions of interest were drawn manually.

AR42J tumor [4] = experiment: as above; type: in vivo, rat; conditions: i.v. 20 to 40 MBq (BZH3, n = 5), 10 to 30 MBq (RGD4, n = 4), nude rats
Excerpt: as §1

integrin ανβ3, P06756 = target: T1, integrin ανβ3, P06756; experiment: not stated; IC50 of ^68Ga-RGD4 for ανβ3; format, competitor and conditions not told; conditions: remark: other sources report otherwise
T1 chain 1: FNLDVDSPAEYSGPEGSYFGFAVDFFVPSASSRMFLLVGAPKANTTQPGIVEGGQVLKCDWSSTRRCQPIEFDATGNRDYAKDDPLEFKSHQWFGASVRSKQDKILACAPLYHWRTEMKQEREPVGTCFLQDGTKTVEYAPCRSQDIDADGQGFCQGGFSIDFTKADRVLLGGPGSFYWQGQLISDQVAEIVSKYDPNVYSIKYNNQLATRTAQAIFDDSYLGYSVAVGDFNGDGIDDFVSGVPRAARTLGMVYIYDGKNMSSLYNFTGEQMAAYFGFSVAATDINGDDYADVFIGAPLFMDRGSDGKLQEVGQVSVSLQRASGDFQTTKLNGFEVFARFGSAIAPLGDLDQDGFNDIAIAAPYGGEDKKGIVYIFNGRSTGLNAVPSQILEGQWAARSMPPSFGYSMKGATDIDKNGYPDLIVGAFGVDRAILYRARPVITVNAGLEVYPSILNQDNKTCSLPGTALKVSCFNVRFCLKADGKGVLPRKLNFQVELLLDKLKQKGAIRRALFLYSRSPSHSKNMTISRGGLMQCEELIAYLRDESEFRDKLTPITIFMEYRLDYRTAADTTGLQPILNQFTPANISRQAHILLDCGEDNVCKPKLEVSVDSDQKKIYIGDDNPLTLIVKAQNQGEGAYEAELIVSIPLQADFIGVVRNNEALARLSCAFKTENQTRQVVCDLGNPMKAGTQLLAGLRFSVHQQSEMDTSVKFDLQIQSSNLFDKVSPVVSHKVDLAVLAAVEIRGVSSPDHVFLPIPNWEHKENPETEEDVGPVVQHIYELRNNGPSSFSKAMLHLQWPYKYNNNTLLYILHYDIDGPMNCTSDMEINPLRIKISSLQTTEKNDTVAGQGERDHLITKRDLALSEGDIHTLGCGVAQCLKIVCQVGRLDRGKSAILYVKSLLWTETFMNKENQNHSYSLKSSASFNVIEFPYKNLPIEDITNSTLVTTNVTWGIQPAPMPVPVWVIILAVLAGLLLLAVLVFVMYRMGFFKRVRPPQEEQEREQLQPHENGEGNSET
T1 chain 2: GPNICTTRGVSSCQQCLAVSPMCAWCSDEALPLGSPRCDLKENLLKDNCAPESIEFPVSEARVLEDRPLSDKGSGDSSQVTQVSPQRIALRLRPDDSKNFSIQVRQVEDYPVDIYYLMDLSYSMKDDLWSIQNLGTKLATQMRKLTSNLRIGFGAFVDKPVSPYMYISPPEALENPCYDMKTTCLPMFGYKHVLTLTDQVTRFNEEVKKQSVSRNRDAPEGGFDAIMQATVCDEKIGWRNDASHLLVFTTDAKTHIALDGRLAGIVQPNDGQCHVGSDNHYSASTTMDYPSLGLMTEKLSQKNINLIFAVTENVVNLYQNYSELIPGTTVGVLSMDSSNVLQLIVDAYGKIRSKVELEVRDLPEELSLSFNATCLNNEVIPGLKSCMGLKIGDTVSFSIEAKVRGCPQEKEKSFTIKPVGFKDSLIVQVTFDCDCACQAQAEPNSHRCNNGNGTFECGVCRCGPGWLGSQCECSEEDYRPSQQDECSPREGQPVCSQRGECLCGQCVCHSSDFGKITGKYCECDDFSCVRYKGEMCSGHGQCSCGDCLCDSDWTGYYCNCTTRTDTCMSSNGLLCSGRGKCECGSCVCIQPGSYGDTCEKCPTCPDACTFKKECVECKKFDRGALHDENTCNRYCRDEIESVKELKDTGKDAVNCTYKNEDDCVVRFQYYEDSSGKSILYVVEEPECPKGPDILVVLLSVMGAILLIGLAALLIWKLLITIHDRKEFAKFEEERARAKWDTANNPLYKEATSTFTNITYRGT

[5] = median, between tracers P 0.05*

Molecule: N=C(N)NCCC[C@@H]1NC(=O)[C@H](CCCCNC(=O)COCCOCCNC(=O)CSC2CC(=O)N(CCCC(=O)NCCCC[C@H](NC(=O)CCCN3C(=O)CC(SCC(=O)NCCOCCOCC(=O)NCCCC[C@@H]4NC(=O)[C@@H](Cc5ccccc5)NC(=O)[C@H](CC(=O)O)NC(=O)CNC(=O)[C@H](CCCNC(=N)N)NC4=O)C3=O)C(=O)NCCCC[C@H](NC(=O)[C@H](CCCCNC(=O)CCCN3C(=O)CC(SCC(=O)NCCOCCOCC(=O)NCCCC[C@@H]4NC(=O)[C@@H](Cc5ccccc5)NC(=O)[C@H](CC(=O)O)NC(=O)CNC(=O)[C@H](CCCNC(=N)N)NC4=O)C3=O)NC(=O)CCCN3C(=O)CC(SCC(=O)NCCOCCOCC(=O)NCCCC[C@@H]4NC(=O)[C@@H](Cc5ccccc5)NC(=O)[C@H](CC(=O)O)NC(=O)CNC(=O)[C@H](CCCNC(=N)N)NC4=O)C3=O)C(=O)N[C@@H](CCCCNC(=O)CN3CCN(CC(=O)O)CCN(CC(=O)O)CCN(CC(=O)O)CC3)C(N)=O)C2=O)NC(=O)[C@@H](Cc2ccccc2)NC(=O)[C@H](CC(=O)O)NC(=O)CNC1=O (some centres unmarked) [^68Ga-RGD4, metal not drawn]
VB (vessel density, fractional blood volume) (AR42J tumor [1]; maximum): 0.0713 | K1 (transport into the cell; associated with receptor binding) (AR42J tumor [1]; maximum): 0.3195 min⁻¹ | RBP (receptor binding potential) (AR42J tumor [1]; maximum): 0.0514 | k2 (displacement from the receptor) (AR42J tumor [1]; maximum): 0.6152 min⁻¹ | k3 (cellular internalisation) (AR42J tumor [1]; maximum): 0.1352 min⁻¹ | k4 (externalization) (AR42J tumor [1]; maximum): 0.0504 min⁻¹ | VB (vessel density, fractional blood volume) (AR42J tumor [1]; mean): 0.0582 | K1 (transport into the cell; associated with receptor binding) (AR42J tumor [1]; mean): 0.2739 min⁻¹ | RBP (receptor binding potential) (AR42J tumor [1]; mean): 0.0453 | k2 (displacement from the receptor) (AR42J tumor [1]; mean): 0.5386 min⁻¹ | k3 (cellular internalisation) (AR42J tumor [1]; mean): 0.1097 min⁻¹ | k4 (externalization) (AR42J tumor [1]; mean): 0.0443 min⁻¹ | VB (vessel density, fractional blood volume) (AR42J tumor [1]; [5]): 0.0574 | RBP (receptor binding potential) (AR42J tumor [1]; median, between tracers P 0.0275*): 0.0442 | K1 (transport into the cell; associated with receptor binding) (AR42J tumor [1]; [5]): 0.2728 min⁻¹ | k4 (externalization) (AR42J tumor [1]; [5]): 0.0442 min⁻¹ | k2 (displacement from the receptor) (AR42J tumor [1]; median, between tracers P 0.4624): 0.5721 min⁻¹ | k3 (cellular internalisation) (AR42J tumor [1]; median, between tracers P 0.8065): 0.1180 min⁻¹ | VB (vessel density, fractional blood volume) (AR42J tumor [1]; minimum): 0.0468 | K1 (transport into the cell; associated with receptor binding) (AR42J tumor [1]; minimum): 0.2304 min⁻¹ | RBP (receptor binding potential) (AR42J tumor [1]; minimum): 0.0414 | k2 (displacement from the receptor) (AR42J tumor [1]; minimum): 0.3952 min⁻¹ | k3 (cellular internalisation) (AR42J tumor [1]; minimum): 0.0678 min⁻¹ | k4 (externalization) (AR42J tumor [1]; minimum): 0.0382 min⁻¹ | tracer uptake in other sites [2]: heart (exhibit for ^68Ga-RGD4), liver, kidney, urinary bladder, and testicles | IC50 (ανβ3): 4.97 µM | SUV ([3]; mean, 55 to 60 min post-injection): 1.02 SUV | SUV ([3]; median, 55 (56) to 60 min post-injection, between tracers P 0.8065): 0.989 SUV | SUV (standardized uptake value) in tumor (AR42J tumor [4]; maximum, 55 to 60 min post-injection): 1.3084 | SUV (standardized uptake value) in tumor (AR42J tumor [4]; median, 55 (56) to 60 min post-injection, between tracers P 0.8065, listed as 68Ga-RGD tetramer): 0.99 | SUV (standardized uptake value) in tumor (AR42J tumor [4]; minimum, 55 to 60 min post-injection): 0.7833

IC50 (integrin ανβ3, P06756): 4.97 µM
B1: ^68Ga-RGD tetramer (^68Ga-labelled DOTA-comprising RGD tetramer) (peptide)
peptide: cyclo(RGD[dF]K)
modifications: not fully specified (residue 5); also: tetramer on DOTA-Mal4 core, 68Ga on DOTA
